Experimental data reported in patent US7615560B2, “Thienopyrimidines as cooling agents” (Conopco, Inc., priority 2004, dated 2009).

Target: T1, human TRPM8 channel (Homo sapiens, UniProt Q7Z2W7)
T1 construct: The open reading frame of human cDNA TRPM8 from position 41-3355bp was amplified; expressed in transfected cells
Test: Intracellular calcium (fluo-4 fluorescence) assay in HEK 293 cells stably expressing human TRPM8
Format: cell-based
Details: fluo-4 calcium fluorescence, concentration producing one-half of maximal response (DFmax)
Description: Humans can detect changes in temperature from noxious cold (<8 C) to noxious heat (>52 C) due to activation of sensory nerve fibers. “The principal temperature sensors in the sensory nerve fibers are members of a family of transient receptor potential (TRP) cation channels” (Voets et al., 2004). In humans the sensation of cooling is elicited by activation of channel TRPM8, which is activated at temperatures below 28 C (Voets et al., 2004). Furthermore human TRPM8 is activated by compounds such as menthol (Brauchi et al., Proc. Natl. Acad. Sci. USA, 2004, Oct. 26; 101 (43):15494-9; Voets et al., Nature, 2004, 430 (7001): 748-54). […]
The open reading frame of human cDNA TRPM8 from position 41-3355bp was amplified from a human prostate cDNA library (Stratagene) using primers […] and […] as previously described previously (Tsavalier et al., 2001). […]
Cells stably expressing the human TRPM8 were seeded in a 96 well plate (coated with polylysine) at a density of 10^5 cells /well in 200 μl of media. […] The dye was then removed and the cells were incubated in a Tyrodes buffer (containing 1 mM probenicide, pH 7.4) pre-equilibrated at a certain temperature (i.e 37° C.) and the intracellular calcium levels were monitored at the same temperature, using the Novostar plate reader. The cells in each well were illuminated at 480 nm, and the fluorescent light emitted at 510 nm was measured. […]

T1 sequence (Q7Z2W7 whole entry): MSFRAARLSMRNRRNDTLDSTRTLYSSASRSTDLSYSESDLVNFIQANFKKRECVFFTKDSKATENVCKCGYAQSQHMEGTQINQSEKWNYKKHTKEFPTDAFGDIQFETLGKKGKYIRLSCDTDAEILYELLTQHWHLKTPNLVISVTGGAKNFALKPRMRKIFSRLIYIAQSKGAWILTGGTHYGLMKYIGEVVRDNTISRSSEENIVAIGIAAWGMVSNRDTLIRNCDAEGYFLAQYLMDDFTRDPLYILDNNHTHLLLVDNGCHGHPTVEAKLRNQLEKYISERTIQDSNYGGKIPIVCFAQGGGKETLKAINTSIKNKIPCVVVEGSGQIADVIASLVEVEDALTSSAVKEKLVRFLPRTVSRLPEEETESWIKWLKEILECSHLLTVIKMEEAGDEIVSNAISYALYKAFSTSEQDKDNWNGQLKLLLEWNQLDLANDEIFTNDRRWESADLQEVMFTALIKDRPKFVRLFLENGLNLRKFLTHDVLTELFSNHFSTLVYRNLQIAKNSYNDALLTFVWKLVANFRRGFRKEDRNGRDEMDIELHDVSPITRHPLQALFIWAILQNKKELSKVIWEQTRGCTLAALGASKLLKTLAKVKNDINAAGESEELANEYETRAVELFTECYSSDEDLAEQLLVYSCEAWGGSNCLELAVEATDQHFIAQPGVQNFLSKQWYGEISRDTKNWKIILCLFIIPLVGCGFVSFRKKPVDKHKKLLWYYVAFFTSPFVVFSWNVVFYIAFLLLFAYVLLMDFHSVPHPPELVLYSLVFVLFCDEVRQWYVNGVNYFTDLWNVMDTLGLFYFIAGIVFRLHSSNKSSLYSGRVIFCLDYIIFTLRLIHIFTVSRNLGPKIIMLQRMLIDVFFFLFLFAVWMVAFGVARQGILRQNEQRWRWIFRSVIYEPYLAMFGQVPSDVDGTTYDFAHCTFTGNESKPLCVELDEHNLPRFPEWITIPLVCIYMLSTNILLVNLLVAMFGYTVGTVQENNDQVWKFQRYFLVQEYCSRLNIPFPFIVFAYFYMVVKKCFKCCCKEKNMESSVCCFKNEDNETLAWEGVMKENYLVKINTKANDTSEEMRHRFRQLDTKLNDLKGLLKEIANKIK

- EC50: 6.5 µM
SMILES: CCCn1cnc2sc3c(c2c1=N)CCCC3 [Example 1, 3-propyl-5,6,7,8-tetrahydro-3H-benzo[4,5]-thieno[2,3-d]pyrimidin-4-ylidene amine]
